Assay: gradient 5% acetonitrile 3 min, to 50% in 2 min, to 85% in 15 min, held 3 min, 100 µL/min
Settings: column: Zorbax Extend-C18 2.1 x 50 mm; eluents: water / acetonitrile, 0.1% formic acid
Procedure, shortened: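 Standards, all pure, were combined into mixtures of ~100 molecules and run at 100 μL/min on a Zorbax Extend-C18 column (2.1 × 50 mm, 1.8 μm) with water and acetonitrile, each containing 0.1% formic acid. A coupled quadrupole time-of-flight mass spectrometer operated in positive and negative ionization mode. Retention time values come from computationally picked adduct peaks, each inspected manually.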

Row | SMILES | RP-LC retention time [s]
1 | Cc1c(C(=O)NCCN2CCOCC2)sc2ncn(CC(=O)N3CCCCC3C)c(=O)c12 (stereo not given) | 598
2 | CCn1ccc(-c2nc(-c3ccc4c(c3)nnn4CCN3CCCCC3)no2)n1 | 623
3 | O=C1CC(c2nc(-c3ccc(C(F)(F)F)cc3)no2)CN1c1ccc2c(c1)OCO2 (stereo not given) | 1070
4 | CN1c2cc(F)ccc2C(=O)NC12CCN(C(=O)c1cccc(F)c1)CC2 | 769
5 | CC1CCN(S(=O)(=O)c2ccc3nn(CCc4ccccc4)c(=O)n3c2)CC1 | 1020
6 | CN1C2CCC1[C@@H](COC(=O)c1ccccc1)[C@@H](O)C2 (stereo not given in full) | 636
7 | CCCn1cnc2c(-c3ccccc3)csc2c1=O | 922
8 | O=C(C1CCN(c2nc3ccc(-c4ccc(F)cc4)nc3s2)CC1)N1CCCCC1 | 1080
9 | COC(=O)CNC(=O)N1CCN(c2nc3ccccc3n(Cc3ccccc3)c2=O)CC1 | 779
10 | Cc1c(-c2noc(-c3ccc(F)cc3)n2)nnn1Cc1ccc(F)cc1 | 1060
11 | COc1cccc(NC(=O)C2CCCN(c3nnc4ccc(Cl)cn34)C2)c1 (stereo not given) | 774
12 | O=C1NCCCCCCN(C(=O)Nc2ccc(F)cc2)[C@H]2CCC[C@@H]12 | 780
13 | CC(C)c1ccc(N2C(=O)C3N=NN(Cc4nc(-c5ccc6c(c5)OCO6)no4)C3C2=O)cc1 (stereo not given) | 1060
14 | Cc1ccc(-c2c(-c3nn(C)c4ncnc(N5CC[C@H](N6CCCCC6)C5)c34)cnn2C)cc1 | 657
15 | CCOc1ncccc1CNC(=O)CNC(C)=O | 568
16 | O=C(O)c1cncc(Br)c1 | 701
17 | CCc1nc(-c2ccc(OC3CCN(CCc4ccccc4)C3)cc2)no1 (stereo not given) | 744
18 | Cc1noc(C)c1S(=O)(=O)N1CCC(c2nn(C)c(=O)n2C2CCCC2)CC1 | 856
19 | CCOC(=O)CNC(=O)N1CCN(c2nc3ccccc3n2CC)CC1 | 602
20 | O=C(NCCCN1CCC(Cc2ccccc2)CC1)C1CCCN(S(=O)(=O)N2CCOCC2)C1 (stereo not given) | 660

Row | SMILES | RP-LC retention time [s]
21 | CCc1ccc(C(=O)N2CCC3(C2)C(=O)N(C)c2ccccc23)cc1 (stereo not given) | 861
22 | COc1ccc(-c2nnc(-c3ccc(-n4ccnc4)nc3)o2)c(OC)c1 | 630
23 | CC1CCCCN1CCCNC(=O)CCC(=O)N1CCc2c(c(C(=O)N3CCCC3)nn2C)C1 (stereo not given) | 586
24 | O=S(=O)(c1ccc(-c2nnc(C3CCCC3)o2)o1)N1CCCCC1 | 1010
25 | CCCN(C(=O)c1cccc(F)c1)c1nc(-c2ccccc2)cs1 | 1310
26 | CC(C)CCN1N=C(C(=O)N2CCOCC2)S(=O)(=O)c2ccc(Cl)cc21 | 957
27 | O=C(NC1CCCC1)C1c2cccn2CC(=O)N1Cc1ccc(Cl)cc1 (stereo not given) | 905
28 | Cc1ccc(Nc2c(-c3ccc(Br)cc3)nc3cnccn23)cc1 | 1100
29 | Cc1ccc(Nc2nc(C(=O)NC3CCCC3)nc3ccccc23)cc1 | 853
30 | O=C(NCc1nc(-c2cccc(-c3csc(C4CC4)n3)c2)no1)c1ccccc1 | 1030
31 | c1cc(-c2noc(-c3cccs3)n2)cc(-c2ccn[nH]2)c1 | 903
32 | CCN(Cc1ccccc1)C(=O)Cn1cccc1-c1nnc(-c2ccccc2)o1 | 1050
33 | O=C(Cc1nnc2cc(-c3nc(C4CC4)no3)ccn12)NC1CC1 | 646
34 | COc1ccc(-c2ccnn2-c2ccc(SCC(N)=O)nn2)cc1 | 777
35 | COc1cc(Nc2c(C#N)cnc3cc(OCCCN4CCN(C)CC4)c(OC)cc23)c(Cl)cc1Cl | 675
36 | C=CCn1nc2ccc(S(=O)(=O)N3CCCCC3)cn2c1=O | 778
37 | COC(=O)N1CCN(CCNC(=O)C2(c3ccc(Cl)cc3)CCCC2)CC1 | 592
38 | CCC1CN1P1(=O)OCC(C)([N+](=O)[O-])CO1 (stereo not given) | 721
39 | CSc1ccc(CNC(=O)C2CCCN(c3ccc(N4CCOCC4)nn3)C2)cc1 (stereo not given) | 653

The remaining lines, values ahead:

Row | RP-LC retention time [s] | SMILES
40 | 714 | Cc1oc(-c2[nH]ncc2C(=O)N(C)C)cc1S(=O)(=O)Nc1ccc(Cl)cc1F
41 | 652 | Cc1sc2ccn(CC(C)C)c(=O)c2c1C(=O)NCc1ccc(N(C)C)cc1
42 | 1360 | Cc1ccc(C)c(N2CCN(S(=O)(=O)c3cc(-c4csc(C)n4)sc3C)CC2)c1
43 | 668 | CCNS(=O)(=O)c1cc(-c2c(CC)noc2NC(C)=O)ccc1OC
44 | 933 | Cc1ccc(Nc2c(-c3ccc4c(c3)OCO4)nc3cnccn23)c(C)c1
45 | 1050 | CCOc1ccc(CCNC(=O)c2cc3sccc3n2CC)cc1OCC
46 | 800 | COc1ccc(-c2nc(C)cc3nn(CC(=O)Nc4cccc(OC)c4)c(=O)n23)cc1
47 | 900 | CCCn1cc(CCNS(=O)(=O)Cc2ccc(F)cc2Cl)c2cccnc21
48 | 799 | CCCn1cc(CCNC(=O)c2ccc(C)cc2C)c2cccnc21
49 | 715 | Cc1ccccc1CN1CCN(CC(=O)NCc2ccc3c(c2)OCO3)C(=O)C1=O
50 | 648 | Cn1nc2n(c1=O)CCC(NS(=O)(=O)c1cccc3cccnc13)CC2 (stereo not given)
51 | 1250 | Cc1sc(C)c(S(=O)(=O)NCC(C)c2ccccc2)c1-c1cc(C(F)(F)F)on1 (stereo not given)
52 | 970 | Cc1cc(C)n(-c2nc(CC(=O)N3CCc4ccccc4C3)cs2)n1
53 | 583 | Cc1ccc(-c2csc(NC(=O)CSc3nc4c(cc3C#N)C(=O)CCC4)n2)cc1
54 | 616 | COc1ccccc1N1CCN(CCCNS(=O)(=O)c2ccc3c(c2)CCCC(=O)N3)CC1
55 | 806 | Cc1ccccc1CNC(=O)CN1CCN(Cc2ccccc2)C1=O
56 | 618 | Cc1nc2ccc(C(=O)N(C)C)cc2nc1C
57 | 732 | Cc1ncc([N+](=O)[O-])n1CCOC(=O)c1ccc(F)cc1
58 | 739 | Cc1ccc(NS(=O)(=O)c2cc(-c3[nH]ncc3C(=O)N(C)C)oc2C)c(C)c1
59 | 903 | Cc1ccc(N2CCC(NC(=O)Nc3cc(F)cc(F)c3)C2=O)cc1C (stereo not given)
60 | 872 | CCCN1C(=O)COc2ccc(-c3noc(-c4cccc(NC(C)=O)c4C)n3)cc21
61 | 766 | CC1Oc2ccc(-c3csc(NC(=O)c4ccncc4)n3)cc2N(C)C1=O (stereo not given)
62 | 730 | Cc1cc2nc3sc(C(=O)NCCCN4CCN(C)CC4)cc(=O)n3c2cc1C
63 | 1020 | Cc1cc(C)cc(S(=O)(=O)N2CCc3c(c(-c4nnc(-c5ccccc5)o4)nn3C)C2)c1
64 | 890 | CCOC(=O)c1c(C)[nH]c(C)c1S(=O)(=O)N1CCC(C(=O)Nc2cc(Cl)ccc2C)CC1
65 | 1230 | Cc1ccc(-c2nnc(Cc3nc(-c4ccc(Br)cc4)no3)o2)cc1C

Row | RP-LC retention time [s] | SMILES
66 | 720 | CCn1c(=O)c(NCc2ccc(C(C)C)cc2)nc2ccncc21
67 | 810 | CCOC(=O)COc1cc(-c2ccc(F)cc2)nc2ccc(NC(=O)C3CCC3)cc12
68 | 1250 | Cc1ccc(S(=O)(=O)N2CCCCC2)cc1-c1nnc(-c2ccc(Cl)cc2)o1
69 | 837 | COc1nn(C)cc1C(=O)Nc1nc(-c2nc3ccccc3s2)cs1
70 | 911 | CC1CCCN(c2nccn3c(=O)n(CC(=O)Nc4ccc(Br)cc4F)nc23)C1 (stereo not given)
71 | 797 | Cc1cc(N2CCN(S(=O)(=O)c3ccc(F)cc3)CC2)nc(NC2CCCCC2)n1
72 | 673 | COc1ccc(NC(=O)c2c[nH]c3ncccc23)cc1
73 | 770 | CCn1cc(C)c(C(=O)O)c1CC(=O)N(C)c1ccccc1F
74 | 631 | CN(C)c1ccc(C(=O)NCCCCCCC(=O)NO)cc1
75 | 912 | CCC(NC(=O)c1nnc(-c2ccc(S(=O)(=O)N(C)C)cc2)o1)c1cccs1 (stereo not given)
76 | 566 | CCOC(=O)CNC(=O)N(C)Cc1nc2cc(C(=O)N(C)C)ccc2n1C
77 | 735 | Cc1cccc(-c2cc3n(n2)CCCN(C(=O)C2CCOC2)C3)c1 (stereo not given)
78 | 1080 | Cc1nn(-c2ccc(F)cc2)c2nc(N3CCCC(C(=O)NCCc4ccco4)C3)sc12 (stereo not given)
79 | 896 | Cc1ccsc1C(=O)N1CCC2(CC1)N=C(c1ccc(Cl)cc1)NO2
80 | 834 | O=C1c2cc(O)cc(O)c2OC[C@@H]1c1ccc(O)c(O)c1
81 | 1020 | Cc1ccc(CNC(=O)c2nnc(-c3ccc(S(=O)(=O)N4CCCCC4)cc3)o2)cc1
82 | 819 | COc1ccc(-c2cnc(S(=O)(=O)CC(=O)NCc3ccccc3Cl)n2C)cc1
83 | 888 | Cc1cccc(NC(=O)Cn2c(=O)n(-c3cccc(C)c3)c(=O)c3c2cc(C)n3C)c1
84 | 770 | Cc1ccc(-c2nc3cc(C)ccn3c2Nc2ccccc2C)cc1
85 | 916 | Cc1nc2c(NC(=O)COc3ccccc3C)cccn2n1
86 | 705 | CCn1cc(-c2ccncc2)cc1C(=O)NCc1cccc(Br)c1
87 | 886 | Cc1cc2c(=O)n(CC(=O)Nc3cccc(C(F)(F)F)c3)ccc2s1
88 | 744 | Cc1cc(-c2csc(S(=O)(=O)NCCc3ccc(S(N)(=O)=O)cc3)c2)on1
89 | 1060 | Cc1ccccc1NC(=O)Cn1c(C)nc2c(sc3nc(-c4ccccc4)ccc32)c1=O
90 | 802 | Cc1ccc(-c2nnc(SCC(=O)Nc3cc(C)ccc3C)o2)cc1

Source: the METLIN SMRT retention time set (Domingo-Almenara et al. 2019)
